Laboratory results: US20220169622A1, “AMPLIFICATION OF NUCLEIC ACIDS” (Abbott Molecular Inc., priority 2018, published 2022)
Entries after “also recorded” stand apart in the source; their conditions may differ.

Assays:
Format in all cases: biochemical
[1] = system: non-specific amplification products; assay: RT-PCR without template, EVA Green monitoring of non-specific amplification products (Example 1); conditions: 0.0015, 0.005, 0.01% (w/w) MIT (0.015, 0.05, 0.1% (w/w) PROCLIN 950); no template; compared to reactions without MIT
Source text: The primers and probes in the reaction mixtures target HIV-1 nucleic acids. The fluorescent DNA-intercalating dye, EVA Green, was included in each reaction to monitor the accumulation of non-specific amplification products. Realtime EVA Green fluorescence signals from RT-PCR reactions comprising […], 0.05. and 0.1% (w/w) PROCLIN 950 are shown in FIG. 1.

[2] = system: non-specific amplification products; assay: RT-PCR without HIV-1 target RNA after master mix incubation at 2 to 8° C. for 16 hours, EVA Green (Example 2); conditions: 0.0015, 0.005, 0.01% (w/w) MIT; master mix incubated at 2 to 8° C. for 16 hours; no HIV-1 target RNA; compared to reactions without MIT
Experimental: During the development of embodiments of the technology provided herein, experiments were conducted to simulate the preparation of bulk RT-PCR reagents by a commercial manufacturing process. In particular, prototype HIV-1 assay master mixes comprising 0, 0.015, 0.05, and 0.1% (w/w) PROCLIN 950 (corresponding to 0, 0.0015, 0.005, and 0.01% (w/w) MIT concentrations, respectively) were incubated at 2 to 8° C. for 16 hours. RT-PCR was then performed with each master mix in the absence of HIV-1 target RNA (2 replicates per condition). The fluorescent DNA-intercalating dye. EVA Green was included in each reaction to monitor the accumulation of non-specific amplification products. Realtime EVA Green fluorescence signals from RT-PCR reactions comprising 0, 0.015, 0.05, and 0.1% (w/w) PROCLIN 950 are shown in FIG. 2.

HIV-1 target RNA = assay: Prototype HIV-1 assay RT-PCR with 50 copies of target RNA (Example 3); conditions: 0.015% (w/w) PROCLIN 950 (0.0015% (w/w) MIT); 50 copies of HIV-1 target RNA; compared to no PROCLIN 950
Experimental: During the development of embodiments of the technology provided herein, experiments were conducted to test RT-PCR in the presence of MIT in a prototype HIV-1 assay master mix. Prototype HIV-1 assay master mixes comprising 50 copies of HIV-1 target RNA and either 0.015% (w/w) PROCLIN 950 (0.0015% (w/w) MIT) or comprising no PROCLIN 950 were tested by RT-PCR (8 replicates each condition). HIV-specific realtime fluorescence signals from HIV-1 RT-PCR reactions comprising 0 or 0.015% (w/w) PROCLIN 950 are shown in FIG. 3.

Chlamydia trachomatis = assay: Prototype CT/NG assay RT-PCR with 0.1 inclusion forming units (Example 4); conditions: 0.015% (w/w) PROCLIN 950 (0.0015% (w/w) MIT); 0.1 inclusion forming units of Chlamydia trachomatis; compared to no PROCLIN 950
Experimental: During the development of embodiments of the technology provided herein, experiments were conducted to test RT-PCR in the presence of MIT in a prototype CT/NG assay master mix. Prototype CT/NG assay master mixes comprising 0.1 inclusion forming units of Chlamydia trachomatis and either 0.015% (w/w) PROCLIN 950 (0.0015% (w/w) MIT) or comprising no PROCLIN 950 were tested by RT-PCR (8 replicates each condition). CT-specific realtime fluorescence signals from CT/NG RT-PCR reactions comprising 0 or 0.015% (w/w) PROCLIN 950 (0.0015% (w/w) MIT) are shown in FIG. 4. […] Further, the prototype CT/NG assay uses different primer and probe sets than the prototype HIV-1 assay described in Example 3.

SMILES: Cn1sccc1=O [MIT, 2-methyl-4-isothiazolin-3-one]
- non-specific product formation (EVA Green signal) [1]: reduces the accumulation of non-specific product; also recorded: decreased levels of non-specific product formation
- non-specific product formation (EVA Green signal) [2]: reduces the accumulation of non-specific product during prolonged storage; also recorded: decreased levels of non-specific product formation
- HIV-specific realtime fluorescence signal (RT-PCR performance) (HIV-1 target RNA): enhances RT-PCR performance
- CT-specific realtime fluorescence signal (RT-PCR performance) (Chlamydia trachomatis): enhances RT-PCR performance
